From ChEMBL document CHEMBL2062508, “Lasionectrin, a naphthopyrone from a Lasionectria sp” (J Nat Prod, 2012)

Test system: Plasmodium falciparum
Assay: Antiplasmodial activity against Plasmodium falciparum 3D7 infected in human erythrocytes by lactate dehydrogenase assay
Assay type: functional, organism-based

## CCC[C@@H]1C[C@H]2OC(=O)c3c(cc4cc(OC)cc(O)c4c3O)[C@H]2O1 [LASIONECTRIN]
  IC50: 11 µM
